Experimental data: patent US4582827A, “Pesticidal diphenylaziridines” (priority 1983, dated 1986)

Experiments:
[1] = test system: tobacco hornworm (Manduca sexta) larvae; assay: Tobacco hornworm growth and developmental responses to feeding on diets containing the compounds; assay type: in vivo; settings: for larval death (words in table) / larval mortality / symptoms of larvae / time until all larvae dead: 5 mM in diet; for oral activity: diet, Example 2; for larval mortality (acute toxicity): in 24-72 hours
Procedure: The compounds produced and described in Example 1 were then tested for pesticidal activity against the tobacco hornworm (Manduca sexta). The screening procedure for these tests began with the larval stage and continued through the pupal and adult stages and finally evaluated egg production. The studies thus permitted the evaluation of the effects of the compounds over several subsequent developmental stages in the total life cycle of the insect, giving estimates of acute toxicity (insecticidalor larvicidal activity) as well as prolonged or delayed effects on development (growth regulation) and reproduction (chemosterilization). The latter are of special importance in conjunction with the integrated pest management approach to insect control.
The test compounds were incorporated into the artificial diet of tobacco hornworm larvae and their subsequent growth and developmental responses were monitored using the following parameters: larval mortality including determination of LD50 values, rate of larval development and weight gain, percent pupation, pupal weight and degree of deformities, percent adult emergence and measures of reproductive capacity such as the number of developed ooctyes, fecundity and fertility. The protocol for the screening tests has been developed over a number of years by Dahlman et al., Comp. Biochem. Physiol. 51A, 33, (1975); Comp. Biochem. Physiol., 52A, 105 (1975); Ent. Exp. et Appl., 22, 123 (1977); Palumbo and D. L. Dahlman, J. Econ. Entomol. 71, 674 (1978); D. L. Dahlman, Ent. Exp. et Appl., 24, 327 (1978).
Each treatment used 15 newly ecdysed fifth-instar larvae. Death of larvae within a few hours to several days of initial exposure was considered to be acute toxicity. However, the compounds may reduce the maximum size attained by larvae and/or may retard growth so that larvae require additional time to attain their maximum size. Developmental parameters subsequent to the feeding stage also may be affected. […] Mortality may occur in the pupal stage or emerging adults may have wrinkled wings or other deformities. The number of eggs produced by treated females may be reduced and/or unfertile. Although acute toxicity is desirable in the control of any insect, the delayed effects which result in poor survival and reduced reproductive capacity are significant factors in the long-range program of pest management systems.
Continuous cultures of M. sexta are maintained according to the procedures of Yamamoto, J. Econ. Entomol., 62, p. 1427 (1969). Ingredients of the diet formulation include sugar, casein, wheat germ oil, cholesterol, salt mixture, yeast, vitamins, antioxidants and fungal inhibitors, such as ascorbic acid, sorbic acid, formaldehyde and methyl-p-benzoate. All are incorporated into a liquid agar base which, when poured into holding pans, solidifies to form an adequate substrate upon which the insect larvae feed. Nearly any test material can be uniformly incorporated into such a diet. Thus, exposure to experimental compounds can be evaluated during all or any part of the larval stage. In addition, chronic or long-term effects in subsequent life stages can also be monitored.
The results from these studies, in which the 1,2-diphenylaziridines of Example 1 were incorporated singly into the diet of M. sexta at a concentration of 5 mM are presented in the following Table I.

[2] = test system: tobacco hornworm larvae (newly ecdysed fifth-instar); assay: Topical application to tobacco hornworm larvae; assay type: in vivo, Manduca sexta
Procedure: The test compounds were dissolved either in acetone or hexane and applied to the integument of the test insect with a micro applicator. Newly ecdysed fifth-instar tobacco hornworm larvae weighing between 1-1.5 g were used and toxicity data were obtained in the same way as previously described.

H. virescens = assay: Incorporation into H. virescens diet; assay type: in vivo, Heliothis virescens; settings: as much as 20 mM in diet
Procedure: Compounds 1, 10, 11, 13 and 14 were incorporated into H. virescens diet in the same manner as M. Sexta. Diets containing as much as 20 mM of each compound had little effect on larval development time, pupal weight or time to adult emergence.

[3] = test system: Salmonella typhimurium strains TA 98, TA 100, TA 1535, TA 1537, TA 1538, TA 1978; assay: Ames assay (spot test), revertant colonies; assay type: cell-based
Procedure: This means that aziridine compounds, 1, 10, or 11, will not cause mutations in DNA arising from potential changes in frame shift and/or base pairing. Compounds 1, 10 and 11 were tested for mutagenic properties using the following experimental procedure.
Potential mutagenic and carcinogenic properties of the compounds were evaluated with standard Ames assay procedures (Ames et al, "Mutation Res.", 31, p. 347, 1975). This assay used strains of Salmonella typhimurium selected for sensitivity and specificity in being reverted from a histidine requirement back to prototrophy by a wide variety of mutagens. Potential changes in frameshift were evaluated using strains TA 98, TA 1537 and TA 1538, while changes in base pairing were detected using strains TA 100 and TA 1535. In addition, strain TA 1978 was used, in combination with TA 1538, to evaluate whether the agent killed bacteria by damage to DNA that could be repaired by this strain. Initially, the compounds were screened using the spot test, in which 1000 μgm of material dissolved in 10 μl of DNSO was applied to the middle of the plate.
Dose-response tests were not performed because the results were negative. All the tests were carried out in the presence and absence of an S9 rat liver preparation and contained a positive control (2-acetylaminofluorene,AAF) and a negative control (DMSO).

## Clc1ccc(N2CC2c2ccccc2Cl)cc1 (centres unmarked) [Compound 11]
[1]; 1 mM in diet
  % Adult Emergence: 100%
  % Adults: 100%
  % Malformed Adults: 7%
  % Pupation: 100%
  Days to Max Wt: 5.9 ± .1 days
  Max Larval Wt: 8.29 g
  Mean No. of Eggs: 74 ± 22
  No. of female Adults: 4
  Total No. of Adults: 14
  larval weight: a slight reduction in larval weight
[1]; 2.5 mM in diet
  % Adult Emergence: 100%
  % Adults: 60%
  % Malformed Adults: 0%
  % Pupation: 60%
  Days to Max Wt: 7.7 ± 0.6 days
  Max Larval Wt: 6.77 g
  Mean No. of Eggs: 15 ± 7
  No. of female Adults: 7
  Total No. of Adults: 9
  maximum larval weight and mean number of eggs: reduced maximum larval weight and the mean number of eggs
  percent pupation: lowered the percent pupation
[1]
  larval death (words in table): ALL DEAD WITHIN 24 HR OF START OF TEST
  larval mortality: all or nearly all larvae died
  symptoms of larvae: extreme agitation of larvae, oral and anal expulsion of fluids and ultimately, death
  time until all larvae dead: ≤ 24 h
  oral activity: good oral activity
[1]; summary of Tables I and II
  larval mortality (acute toxicity): 100%
  time to 100% larval mortality: 24 to 72 h
[2]; 500 μg/larva (400 ppm), within 48 hr
  larvae killed: 80%
[2]; 250 ppm topical
  developmental effects: increased larval developmental time, reduced maximum weight and fewer numbers of eggs
[2]; Manduca sexta, 250 ppm topical, read-out: larval mortality
  mortality at 250 ppm, 250 µg/g: 30%
[2]; topical
  topical activity against the tobacco hornworm (comparison in words): less active than Compound 13
H. virescens
  effect on larval development time, pupal weight or time to adult emergence: little effect
[3]; strain TA 98, +S9
  Mean number of revertant colonies per plate, TA 98 +S9: 44.7 colonies per plate
[3]; strain TA 98, -S9
  Mean number of revertant colonies per plate, TA 98 -S9: 27.3 colonies per plate
[3]; strain TA 100, +S9
  Mean number of revertant colonies per plate, TA 100 +S9: 58.3 colonies per plate
[3]; strain TA 100, -S9
  Mean number of revertant colonies per plate, TA 100 -S9: 28.0 colonies per plate
[3]; strain TA 1535, +S9
  Mean number of revertant colonies per plate, TA 1535 +S9: 15.3 colonies per plate
[3]; strain TA 1535, -S9
  Mean number of revertant colonies per plate, TA 1535 -S9: 16.3 colonies per plate
[3]; strain TA 1537, +S9
  Mean number of revertant colonies per plate, TA 1537 +S9: 13.7 colonies per plate
[3]; strain TA 1537, -S9
  Mean number of revertant colonies per plate, TA 1537 -S9: 9.7 colonies per plate
[3]; strain TA 1538, +S9
  Mean number of revertant colonies per plate, TA 1538 +S9: 26.0 colonies per plate
[3]; strain TA 1538, -S9
  Mean number of revertant colonies per plate, TA 1538 -S9: 13.3 colonies per plate
[3]; strain TA 1978, +S9
  Mean number of revertant colonies per plate, TA 1978 +S9: 196.0 colonies per plate
[3]; strain TA 1978, -S9
  Mean number of revertant colonies per plate, TA 1978 -S9: 209.7 colonies per plate
[3]; with and without S9 / mammalian liver enzymes
  mutagenicity: not mutagenic

## FC(F)(F)c1ccc(N2CC2c2ccccc2Cl)cc1 (centres unmarked) [Compound 14]
[1]; 1 mM in diet
  % Adult Emergence: 100%
  % Adults: 93%
  % Malformed Adults: 36%
  % Pupation: 93%
  Days to Max Wt: 5.8 ± .1 days
  Max Larval Wt: 9.20 g
  Mean No. of Eggs: 83 ± 13
  No. of female Adults: 9
  Total No. of Adults: 14
[1]; 2.5 mM in diet
  % Adult Emergence: 8%
  % Adults: 7%
  % Malformed Adults: 100%
  % Pupation: 93%
  Days to Max Wt: 6.6 ± 0.2 days
  Max Larval Wt: 8.03 g
  Mean No. of Eggs: 0
  No. of female Adults: 1
  Total No. of Adults: 1
  malformed adults: a large percentage
  maximum larval weight and mean number of eggs: reduced maximum larval weight and the mean number of eggs
[1]
  larval death (words in table): ALL DEAD WITHIN 3 DAYS
  larval mortality: all or nearly all larvae died
  symptoms of larvae: extreme agitation of larvae, oral and anal expulsion of fluids and ultimately, death
  time until all larvae dead: ≥ 48 h
  oral activity: good oral activity
[1]; Manduca sexta, po, 2.5 mM in diet, read-out: pupal mortality
  mortality at 2500 µM: 85%
[1]; summary of Tables I and II
  larval mortality (acute toxicity): 100%
  pupal mortality: caused pupal mortality
  time to 100% larval mortality: 24 to 72 h
[2]; 2000 μg/larvae (1600 ppm)
  topical effect: ineffective
H. virescens
  effect on larval development time, pupal weight or time to adult emergence: little effect
